In patent EP0456514A1, “2-Fluoroneplanocin A and its production” (ASAHI KASEI KOGYO KABUSHIKI KAISHA, priority 1990, dated 1991):
In brackets after ≈: the same amount, converted by molar mass.

Tests used:
L5178Y cells = assay: Growth inhibition activity against L5178Y cells; assay type: cell-based; conditions: for IC50: Mus musculus, L5178Y cells, incubated at 37 °C for 48 hours, cell number by Coulter counter
Procedure: (1) Growth inhibition activity against L5178Y cells:
A solution of each test compound is prepared by dissolving the compound in RRMI 1640 medium containing 10% bovine serum. A cell suspension of L5178Y cells, 1.1× 10⁴ cells/ml, each suspension having a volume of 1.8 ml, is added to each test tube. A solution ( 0.2 ml ) of the test compound hereinabove is added thereto and the medium is tightly sealed and incubated at 37 °C for 48 hours. After incubation, the numberof cells is measured using a Coulter counter and the growth ratio of the cells is determined.

Adenosine deaminase = biological target: T1, Adenosine deaminase (Bos taurus, UniProt P56658); assay: Resistance to adenosine deaminase (remaining sample measured by HPLC); assay type: in vitro ADME, Calf; conditions: for Remaining ratio (%) 0 min. / remaining at 0.5 h, 500 µM: 0.5 mM test sample, adenosine deaminase, 0.05 M Tris-HCl buffer (pH 7.2), 25 °C; for remaining at 0.5 h, 500 µM: bovine, 30min., read-out: Remaining ratio (%) 30min.
T1 construct: Adenosine deaminase ( Calf inlestine, 400 U/ml glycerin, Boehringer 102091 ); purchased Boehringer 102091; host or cells: calf intestine (tissue-derived enzyme)
T1 sequence (P56658 1-363): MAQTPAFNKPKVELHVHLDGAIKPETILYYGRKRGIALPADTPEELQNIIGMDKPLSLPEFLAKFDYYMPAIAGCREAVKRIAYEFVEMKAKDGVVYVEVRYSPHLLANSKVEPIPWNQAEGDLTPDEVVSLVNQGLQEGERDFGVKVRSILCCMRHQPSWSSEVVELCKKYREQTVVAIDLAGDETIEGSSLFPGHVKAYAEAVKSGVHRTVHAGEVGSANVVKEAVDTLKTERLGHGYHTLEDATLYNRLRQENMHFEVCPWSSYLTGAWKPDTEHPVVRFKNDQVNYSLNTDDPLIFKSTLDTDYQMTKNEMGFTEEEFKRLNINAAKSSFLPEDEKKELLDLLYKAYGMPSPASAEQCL
Procedure: (2) Resistance to adenosine deaminase:
A solution 0.5 mM of each test sample is prepared by dissolving the test sample in 0.05 M Tris-HCl buffer (pH 7.2). Adenosine deaminase ( Calf inlestine, 400 U/ml glycerin, Boehringer 102091 ) is diluled ten times with 0.05 M Tris-HCl buffer (pH 7.2) to prepare an adenosine deaminase solulion.
0.5 ml of each sample solulion is mixed with 10 µl of adenosine deaminase solution . The mixtures are allowed to stand in a water bath at 25 °C, and 4 µl samples thereof are pipetted off after 0 and 30 minutes. The remaining sample is measured by HPLC under the following conditions. HPLC: Column : Supersher RP-18-4 Eluent : 15% methanol Flow rate : 1.0 ml/min. Temperature : 50°C

[1] = Single administration toxicity in mice; assay type: in vivo; conditions: 10 mg/kg, intra peritoneally in mice
Procedure: 2 - Fluoroneplanocin A can be applied for an anti-neoplastic agent. Amount of dosage can be determined by considering curative effect, route of administration, ages or body weight of patient, and in general 10 - 500 mg/man/day will be applied. Administration can be done by perorally or parenterally, for example intravenous injection or drop infusion or intramuscular administration.

With `Nc1nc(F)nc2c1ncn2[C@@H]1C=C(CO)[C@@H](O)[C@H]1O` [2-Fluoroneplanocin A, 2-fluoroneplanocin A] the IC50 (L5178Y cells) was 0.06 µg/mL (≈ 0.213 µM), the “growth inhibitory activity against L5178Y cells as compared with that of known neplanocin A” value (L5178Y cells; relative to neplanocin A) was “three times higher levels” and the “Remaining ratio (%) 0 min.” value (Adenosine deaminase) was 100%. The “decomposition by adenosine deaminase” value (Adenosine deaminase; after 30 minutes of incubation) was “not decomposed”, the remaining at 0.5 h, 500 µM (Adenosine deaminase) was 100% and the death [1] was “No death is observed”.

In the case of `Nc1ncnc2c1ncn2[C@@H]1C=C(CO)[C@@H](O)[C@H]1O` [neplanocin A, Neplanocin A], the IC50 (L5178Y cells) is reported as 0.2 µg/mL (≈ 0.76 µM), the “Remaining ratio (%) 0 min.” value (Adenosine deaminase) is reported as 100% and the remaining at 0.5 h, 500 µM (Adenosine deaminase) is reported as 0%.
